Reference: ChEMBL document CHEMBL6182856, “Novel one-/two-photon excited carbazole/quinolinium photosensitizers manifest nanomolar and hypoxia-resistant tumor photodynamic therapy by accelerating apoptosis, ferroptosis, and autophagy” (Eur J Med Chem, 2025)
Calls of active or inactive are those of the source. No cut-off for these calls is given here.

Columns and labels:
[1] = test system: 4T1; assay: Cytotoxicity against mouse 4T1 cells assessed as inhibition of cell growth incubated for 24 hrs measured under normoxia conditions by MTT assay; type: functional, cell-based; details: 4T1, 24 h
[2] = Photosensitizing ability of the compound assessed as superoxide radical production measured upon irradiation by DHE probe based assay; type: functional
[3] = Phototoxicity against human A549 cells assessed as inhibition of cell growth incubated for 24 hrs measured under normoxia conditions and after one-photon excitation upon irradiation with light at 520 nm, 200 mW/cm2 for 10 mins by MTT assay; type: functional, cell-based; details: A549, light or radiation study
[4] = test system: 4T1; assay: Phototherapeutic index, ratio of IC50 for cytotoxicity against mouse 4T1 cells measured under normoxia conditions to IC50 for phototoxicity against mouse 4T1 cells measured under normoxia conditions and after one-photon excitation upon irradiation with light at 520 nm, 200 mW/cm2 for 10 mins; type: functional
[5] = test system: HT-29; assay: Cytotoxicity against human HT-29 cells assessed as inhibition of cell growth incubated for 24 hrs measured under normoxia conditions by MTT assay; type: functional, cell-based; details: HT-29, 24 h
[6] = Photosensitizing ability of the compound assessed as hydroxyl radical production measured upon irradiation by HPF probe based assay; type: functional
[7] = Phototherapeutic index, ratio of IC50 for cytotoxicity against human A549 cells measured under normoxia conditions to IC50 for phototoxicity against human A549 cells measured under normoxia conditions and after one-photon excitation upon irradiation with light at 520 nm, 200 mW/cm2 for 10 mins; type: functional
[8] = Phototoxicity against mouse 4T1 cells assessed as inhibition of cell growth incubated for 24 hrs measured under normoxia conditions and after one-photon excitation upon irradiation with light at 520 nm, 200 mW/cm2 for 10 mins by MTT assay; type: functional, cell-based; details: 4T1, light or radiation study
[9] = Photosensitizing ability of the compound in methanol assessed as singlet oxygen production by measuring quantum yield measured upon irradiation by DPBF based assay; type: functional
[10] = Phototoxicity against human HT-29 cells assessed as inhibition of cell growth incubated for 24 hrs measured under normoxia conditions and after one-photon excitation upon irradiation with light at 520 nm, 200 mW/cm2 for 10 mins by MTT assay; type: functional, cell-based; details: HT-29, light or radiation study
[11] = test system: A549; assay: Cytotoxicity against human A549 cells assessed as inhibition of cell growth incubated for 24 hrs measured under normoxia conditions by MTT assay; type: functional, cell-based; details: A549, 24 h
[12] = Phototherapeutic index, ratio of IC50 for cytotoxicity against human HT-29 cells measured under normoxia conditions to IC50 for phototoxicity against human HT-29 cells measured under normoxia conditions and after one-photon excitation upon irradiation with light at 520 nm, 200 mW/cm2 for 10 mins; type: functional

| Structure (SMILES) | IC50 [1] [µM] | Activity [2] | IC50 [3] [µM] | Ratio IC50 [4] | IC50 [5] [µM] | Activity [6] | Ratio IC50 [7] | IC50 [8] [µM] | Activity [9] | IC50 [10] [µM] | IC50 [11] [µM] | Ratio IC50 [12] |
| --- | --- | --- | --- | --- | --- | --- | --- | --- | --- | --- | --- | --- |
| CCn1c2ccc(N)cc2c2cc(/C=C/c3cc[n+](C)c4ccccc34)ccc21.[I-] | 20.3 | Active | 2.23 | 5 | 19.3 | Active | 10 | 3.66 | 0.04 | 2.77 | 22.4 | 7 |
| CCn1c2ccc(/C=C/c3cc[n+](C)c4ccccc34)cc2c2cc([N+](=O)[O-])ccc21.I | 20.1 | Active | 4.11 | 4 | 59.4 | Active | – | 4.81 | 0.13 | 3.55 | > 100 | 16 |
